This note sets out measurements from ChEMBL document CHEMBL1157736, “2,3-Diaminopyrazines as Rho kinase inhibitors” (Bioorg Med Chem Lett, 2010).

A word on the IC50: it is the concentration that inhibits the measured activity by half.

In series [1] the target is Rho-associated protein kinase 1 (Homo sapiens, UniProt Q13464). Description: Inhibition of human recombinant ROCK1.
Series [2] deals with Rho-associated protein kinase 2 (Homo sapiens, UniProt O75116). In words: Inhibition of human recombinant ROCK2.
Sequence of Rho-associated protein kinase 2 (O75116 whole entry): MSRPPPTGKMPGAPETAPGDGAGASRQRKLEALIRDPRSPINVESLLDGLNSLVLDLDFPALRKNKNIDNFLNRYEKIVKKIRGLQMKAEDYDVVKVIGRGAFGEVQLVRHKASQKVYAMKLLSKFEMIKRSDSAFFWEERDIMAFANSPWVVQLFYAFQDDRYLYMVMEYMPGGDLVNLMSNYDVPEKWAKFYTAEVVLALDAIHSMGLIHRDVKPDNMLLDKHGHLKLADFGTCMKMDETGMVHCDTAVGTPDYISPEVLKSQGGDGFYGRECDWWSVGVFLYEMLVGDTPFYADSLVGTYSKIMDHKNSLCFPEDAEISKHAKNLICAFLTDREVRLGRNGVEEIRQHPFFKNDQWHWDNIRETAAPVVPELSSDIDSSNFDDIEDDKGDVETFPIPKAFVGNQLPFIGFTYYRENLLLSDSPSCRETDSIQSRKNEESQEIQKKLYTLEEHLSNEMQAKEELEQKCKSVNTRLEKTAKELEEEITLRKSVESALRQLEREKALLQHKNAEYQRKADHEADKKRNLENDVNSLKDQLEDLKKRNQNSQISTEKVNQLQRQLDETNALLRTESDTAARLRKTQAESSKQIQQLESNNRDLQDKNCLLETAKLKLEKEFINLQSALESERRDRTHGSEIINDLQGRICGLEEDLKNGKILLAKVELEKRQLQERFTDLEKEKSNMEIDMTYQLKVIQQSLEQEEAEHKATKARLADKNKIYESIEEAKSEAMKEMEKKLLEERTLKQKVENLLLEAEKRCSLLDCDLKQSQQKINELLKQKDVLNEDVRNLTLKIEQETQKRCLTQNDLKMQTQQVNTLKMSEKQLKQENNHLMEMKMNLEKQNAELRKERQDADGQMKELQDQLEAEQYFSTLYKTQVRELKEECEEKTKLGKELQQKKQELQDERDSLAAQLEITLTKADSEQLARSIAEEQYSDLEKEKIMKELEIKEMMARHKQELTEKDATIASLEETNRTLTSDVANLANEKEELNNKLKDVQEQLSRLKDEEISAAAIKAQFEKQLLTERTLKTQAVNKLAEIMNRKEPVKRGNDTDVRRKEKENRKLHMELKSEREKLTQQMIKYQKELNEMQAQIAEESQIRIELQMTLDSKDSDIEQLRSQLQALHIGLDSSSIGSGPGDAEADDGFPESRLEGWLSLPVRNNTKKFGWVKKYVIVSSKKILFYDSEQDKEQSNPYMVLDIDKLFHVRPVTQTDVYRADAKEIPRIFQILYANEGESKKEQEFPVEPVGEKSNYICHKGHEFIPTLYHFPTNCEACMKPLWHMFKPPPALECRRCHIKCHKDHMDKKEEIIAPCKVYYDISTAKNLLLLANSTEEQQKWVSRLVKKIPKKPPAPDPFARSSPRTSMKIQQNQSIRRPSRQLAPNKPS
Series [3] addresses T1, Cytochrome P450 1A2 (Homo sapiens, UniProt P05177).
T1 sequence (P05177 whole entry): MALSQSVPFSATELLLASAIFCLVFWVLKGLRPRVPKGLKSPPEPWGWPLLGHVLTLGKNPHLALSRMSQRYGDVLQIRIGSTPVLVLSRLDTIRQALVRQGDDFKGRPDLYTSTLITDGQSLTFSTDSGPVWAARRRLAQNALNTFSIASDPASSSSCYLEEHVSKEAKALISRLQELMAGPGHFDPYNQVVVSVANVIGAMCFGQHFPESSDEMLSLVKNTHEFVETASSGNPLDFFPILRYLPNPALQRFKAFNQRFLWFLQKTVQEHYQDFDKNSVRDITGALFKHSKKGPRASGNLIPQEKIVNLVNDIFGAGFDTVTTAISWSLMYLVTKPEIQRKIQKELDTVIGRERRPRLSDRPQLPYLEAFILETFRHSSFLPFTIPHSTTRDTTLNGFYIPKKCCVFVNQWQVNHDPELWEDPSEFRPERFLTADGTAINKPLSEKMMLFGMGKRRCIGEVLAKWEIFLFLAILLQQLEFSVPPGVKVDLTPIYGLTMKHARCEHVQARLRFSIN
Description: Inhibition of CYP1A2. Format: ADME.

The target in series [4] is T2, Cytochrome P450 2B6 (Homo sapiens, UniProt P20813).
T2 sequence (P20813 whole entry): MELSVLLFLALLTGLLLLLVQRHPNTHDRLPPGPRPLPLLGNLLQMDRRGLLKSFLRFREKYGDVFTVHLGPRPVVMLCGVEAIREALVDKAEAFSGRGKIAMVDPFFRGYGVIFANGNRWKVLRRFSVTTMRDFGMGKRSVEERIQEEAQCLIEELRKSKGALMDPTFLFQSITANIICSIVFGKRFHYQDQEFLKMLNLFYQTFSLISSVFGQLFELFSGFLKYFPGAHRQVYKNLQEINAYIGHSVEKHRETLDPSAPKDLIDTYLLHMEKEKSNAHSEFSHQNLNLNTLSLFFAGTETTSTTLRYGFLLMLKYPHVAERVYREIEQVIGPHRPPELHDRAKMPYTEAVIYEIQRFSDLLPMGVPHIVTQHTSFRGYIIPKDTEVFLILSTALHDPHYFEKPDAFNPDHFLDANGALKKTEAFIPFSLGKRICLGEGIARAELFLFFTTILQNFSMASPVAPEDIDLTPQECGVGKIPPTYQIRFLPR
In words: Inhibition of CYP2B6. Format: ADME.

In series [5] the target is T3, Cytochrome P450 2C8 (Homo sapiens, UniProt P10632).
T3 sequence (P10632 whole entry): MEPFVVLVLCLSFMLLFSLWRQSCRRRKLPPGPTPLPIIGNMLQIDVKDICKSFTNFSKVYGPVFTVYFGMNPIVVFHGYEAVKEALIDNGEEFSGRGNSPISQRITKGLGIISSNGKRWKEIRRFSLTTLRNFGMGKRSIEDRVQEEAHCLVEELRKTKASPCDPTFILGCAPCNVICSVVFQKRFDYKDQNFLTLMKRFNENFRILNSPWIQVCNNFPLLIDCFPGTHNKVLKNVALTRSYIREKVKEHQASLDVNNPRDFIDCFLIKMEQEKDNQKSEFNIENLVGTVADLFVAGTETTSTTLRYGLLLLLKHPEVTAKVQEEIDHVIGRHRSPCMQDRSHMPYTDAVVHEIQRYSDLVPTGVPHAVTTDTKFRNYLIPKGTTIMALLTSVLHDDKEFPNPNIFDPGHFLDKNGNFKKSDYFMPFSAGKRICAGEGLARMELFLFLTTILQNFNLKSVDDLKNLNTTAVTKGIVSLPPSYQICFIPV
Description: Inhibition of CYP2C8. Type of series: ADME.

Series [6] concerns the target Cytochrome P450 2C19 (Homo sapiens, UniProt P33261). In words: Inhibition of CYP2C19. Format: ADME.
The target of series [7] is Cytochrome P450 2D6 (Homo sapiens, UniProt P10635). Description: Inhibition of CYP2D6. Type of series: ADME.
Sequence of Cytochrome P450 2D6 (P10635 whole entry): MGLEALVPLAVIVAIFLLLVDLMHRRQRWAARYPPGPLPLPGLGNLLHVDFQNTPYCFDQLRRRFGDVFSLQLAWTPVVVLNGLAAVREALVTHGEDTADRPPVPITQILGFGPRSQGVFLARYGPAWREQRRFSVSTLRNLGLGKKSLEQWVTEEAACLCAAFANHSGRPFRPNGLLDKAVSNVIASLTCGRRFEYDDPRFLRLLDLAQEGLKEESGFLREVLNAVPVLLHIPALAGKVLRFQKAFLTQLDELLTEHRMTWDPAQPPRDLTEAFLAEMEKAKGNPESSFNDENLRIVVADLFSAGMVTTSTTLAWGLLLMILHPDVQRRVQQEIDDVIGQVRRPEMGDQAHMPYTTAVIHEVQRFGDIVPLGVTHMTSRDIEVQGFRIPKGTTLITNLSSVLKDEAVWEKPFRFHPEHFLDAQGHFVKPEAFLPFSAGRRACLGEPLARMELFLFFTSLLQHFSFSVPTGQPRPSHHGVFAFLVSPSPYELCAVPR
In series [8] the target is Cytochrome P450 3A4 (Homo sapiens, UniProt P08684). Description: Inhibition of CYP3A4. Format: ADME.
Sequence of Cytochrome P450 3A4 (P08684 whole entry): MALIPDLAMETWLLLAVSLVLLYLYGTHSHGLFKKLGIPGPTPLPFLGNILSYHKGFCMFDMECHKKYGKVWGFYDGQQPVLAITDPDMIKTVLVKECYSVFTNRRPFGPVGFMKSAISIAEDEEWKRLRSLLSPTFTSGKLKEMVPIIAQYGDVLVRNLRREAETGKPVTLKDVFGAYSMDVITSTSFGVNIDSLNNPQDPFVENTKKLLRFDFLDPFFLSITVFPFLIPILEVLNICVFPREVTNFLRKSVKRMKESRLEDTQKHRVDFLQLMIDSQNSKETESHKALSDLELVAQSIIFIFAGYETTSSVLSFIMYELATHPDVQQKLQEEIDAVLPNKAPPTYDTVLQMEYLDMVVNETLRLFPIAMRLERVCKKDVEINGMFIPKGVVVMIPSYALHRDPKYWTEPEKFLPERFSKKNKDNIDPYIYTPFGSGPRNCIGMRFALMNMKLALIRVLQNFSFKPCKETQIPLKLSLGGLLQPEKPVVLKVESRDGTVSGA
Series [9] in a line: Metabolic stability in human liver microsomes after 1 hr. Format: ADME, Microsome. Conditions: read-out: Stability. In general terms: Microsomes from liver hold many membrane-bound enzymes, among them those of drug oxidation.

Where only a bound is given, the exact number is not on record here.

Sequence of Rho-associated protein kinase 1 (Q13464 whole entry): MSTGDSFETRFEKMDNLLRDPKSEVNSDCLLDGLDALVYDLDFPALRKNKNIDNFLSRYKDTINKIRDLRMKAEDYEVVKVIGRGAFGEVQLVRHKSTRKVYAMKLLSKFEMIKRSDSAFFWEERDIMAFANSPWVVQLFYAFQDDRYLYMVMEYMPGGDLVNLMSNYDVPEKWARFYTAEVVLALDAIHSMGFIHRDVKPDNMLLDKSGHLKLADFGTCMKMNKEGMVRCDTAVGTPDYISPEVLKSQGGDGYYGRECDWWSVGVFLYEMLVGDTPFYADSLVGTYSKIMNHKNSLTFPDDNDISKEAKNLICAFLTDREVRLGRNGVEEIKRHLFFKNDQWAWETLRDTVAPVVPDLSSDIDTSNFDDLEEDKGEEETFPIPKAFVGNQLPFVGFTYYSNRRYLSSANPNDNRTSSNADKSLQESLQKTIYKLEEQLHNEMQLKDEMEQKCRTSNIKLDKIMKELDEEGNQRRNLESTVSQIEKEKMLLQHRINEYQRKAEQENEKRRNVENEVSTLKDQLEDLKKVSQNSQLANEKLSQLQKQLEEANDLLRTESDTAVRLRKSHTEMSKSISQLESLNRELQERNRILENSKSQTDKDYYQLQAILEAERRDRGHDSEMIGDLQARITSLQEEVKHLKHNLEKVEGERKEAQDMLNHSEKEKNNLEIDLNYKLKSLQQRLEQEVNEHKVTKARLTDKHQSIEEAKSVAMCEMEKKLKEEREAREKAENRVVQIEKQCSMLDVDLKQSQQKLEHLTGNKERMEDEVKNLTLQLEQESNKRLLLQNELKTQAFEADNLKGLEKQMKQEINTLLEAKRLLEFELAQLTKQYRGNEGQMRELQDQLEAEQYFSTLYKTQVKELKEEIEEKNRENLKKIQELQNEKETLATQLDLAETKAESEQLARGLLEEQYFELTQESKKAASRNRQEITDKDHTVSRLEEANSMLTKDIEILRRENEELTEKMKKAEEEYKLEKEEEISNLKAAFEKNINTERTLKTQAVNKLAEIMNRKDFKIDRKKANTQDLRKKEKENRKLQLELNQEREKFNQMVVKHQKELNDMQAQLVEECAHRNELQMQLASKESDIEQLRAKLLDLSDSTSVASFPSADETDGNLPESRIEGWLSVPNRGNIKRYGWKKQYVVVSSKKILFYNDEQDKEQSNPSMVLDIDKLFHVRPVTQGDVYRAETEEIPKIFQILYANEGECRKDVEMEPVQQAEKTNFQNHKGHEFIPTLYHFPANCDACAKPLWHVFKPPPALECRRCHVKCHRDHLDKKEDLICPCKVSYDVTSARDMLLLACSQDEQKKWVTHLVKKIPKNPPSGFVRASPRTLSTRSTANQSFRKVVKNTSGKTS
Sequence of Cytochrome P450 2C19 (P33261 whole entry): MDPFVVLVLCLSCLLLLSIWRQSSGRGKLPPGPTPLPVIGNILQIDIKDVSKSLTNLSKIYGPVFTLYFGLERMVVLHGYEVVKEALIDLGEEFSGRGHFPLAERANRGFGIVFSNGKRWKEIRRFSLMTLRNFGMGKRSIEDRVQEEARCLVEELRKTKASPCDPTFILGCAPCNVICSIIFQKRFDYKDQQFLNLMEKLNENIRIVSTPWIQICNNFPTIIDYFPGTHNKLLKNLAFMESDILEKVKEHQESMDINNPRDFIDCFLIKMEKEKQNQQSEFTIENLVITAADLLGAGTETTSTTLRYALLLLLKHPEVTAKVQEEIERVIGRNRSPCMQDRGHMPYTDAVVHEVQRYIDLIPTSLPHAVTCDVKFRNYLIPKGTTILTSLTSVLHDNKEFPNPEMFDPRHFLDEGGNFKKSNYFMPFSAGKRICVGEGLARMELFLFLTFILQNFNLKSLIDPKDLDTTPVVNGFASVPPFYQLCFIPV

Turning to `CCN(CC)c1ncc(-c2ccncc2)nc1N1CCCN(C)CC1`, the IC50 in [1] is 2.6 µM; in series [2], 6.7 µM.

As to `CN1CCCN(c2nc(-c3ccncc3)cnc2NCCO)CC1`, the IC50 is 42 µM in series [1] and 3 µM in [2].

On to `CN1CCCN(c2nc(-c3ccc4cn[nH]c4c3)cnc2N)CC1`, for which the IC50 in series [1] and in series [2] was over 10 µM throughout.

For the compound `CNc1ncc(-c2ccncc2)nc1N1CCCN(C)CC1`, the IC50 in series [1] came to 6.9 µM; in series [2], 2.4 µM.

Turning to `Nc1ncc(-c2ccncc2)nc1N1CCN(CCO)CC1`, the IC50 in series [1] worked out at 4.6 µM; in [2], 2.5 µM.

For `Cc1cc(-c2cnc(N)c(N3CCCN(C)CC3)n2)ccn1`, the IC50 in series [1] and in series [2] was over 100 µM in each case.

Take `COCCNc1ncc(-c2ccncc2)nc1N1CCCN(C)CC1`: the values for the half-maximal inhibitory concentration (IC50) in series [1] and in series [2] were 10 µM and 52 µM, respectively.

Take `CN1CCCN(c2nc(-c3ccc4[nH]ncc4c3)cnc2N)CC1`: the IC50 is 2.3 µM in series [1] and 0.95 µM in series [2].

Take `CNC1CCN(c2nc(-c3ccncc3)cnc2N2CCCC2)CC1`: the results for the half-inhibitory concentration (IC50) in series [1] and in series [2] were 1.8 µM and 0.25 µM, respectively.

`CN1CCCN(c2nc(-c3ccnc(N)c3)cnc2N)CC1`: the IC50 in series [1] turned out to be 25 µM; in series [2], 53 µM.

Regarding `CN1CCCN(c2nc(-c3ccnc4[nH]ccc34)cnc2N)CC1`, the results for the IC50 in [1] and in series [2] were 1.5 µM and 0.53 µM, respectively.

In the case of `NCC1CCN(c2nc(-c3ccncc3)cnc2N2CCCC2)CC1`, the IC50 in [1] is 0.13 µM; in [2], 0.028 µM.

In the case of `c1cc(-c2cnc(N3CCCC3)c(N3CCNCC3)n2)ccn1`, the IC50 came to 0.61 µM in [1] and 0.062 µM in [2].

With `CN1CCCN(c2nc(-c3ccncc3)cnc2N2CCOCC2)CC1`, the IC50 in [1] came out at 68 µM; in series [2], 6.3 µM.

Regarding `c1cc(-c2cnc(N3CCCC3)c(N3CCCNCC3)n2)ccn1`, the IC50 in series [1] came to 0.32 µM; in [2], 0.039 µM.

`COCCN(C)c1ncc(-c2ccncc2)nc1N1CCCN(C)CC1`: the IC50 was 48 µM in series [1] and 45 µM in series [2].

As for `CN1CCCN(c2nc(-c3ccncc3)cnc2N2CCCC2)CC1`, the IC50 is 6 µM in series [1] and 0.33 µM in series [2].

Consider `c1cc(-c2cnc(N3CCCC3)c(N3CCCNCC3)n2)c2cc[nH]c2n1`, for which the IC50 in series [1] came to 0.17 µM.

With `NC1CCN(c2nc(-c3ccnc4[nH]ccc34)cnc2N2CCCC2)CC1`, the half-inhibitory concentration (IC50) stood at 0.3 µM in series [1] and 0.089 µM in series [2].

As for `OCCN1CCN(c2nc(-c3ccncc3)cnc2N2CCCC2)CC1`, the half-inhibitory concentration (IC50) in series [1] was found to be 0.3 µM; in series [2], 0.078 µM. Also, the Activity in [3], in series [4], in series [5], in series [6], in series [7] and in series [8] was over 2 µM in each case. For the same compound, the remaining at 1 h in series [9] stood at 100%.

`CN1CCCN(c2nc(-c3cccc4[nH]ncc34)cnc2N)CC1`: the IC50 in series [1] worked out at 9.6 µM; in series [2], 2.5 µM.

As for `CN1CCCN(c2nc(-c3cc[nH]n3)cnc2N)CC1`, the IC50 in series [1] was found to be 37 µM; in series [2] it was 2.9 µM.

Consider `CN1CCCN(c2nc(-c3ccncc3)cnc2N(C)C)CC1`, for which the figures for the IC50 in [1] and in series [2] were 6.5 µM and 1.7 µM, respectively.

As to `Cc1cnccc1-c1cnc(N)c(N2CCCN(C)CC2)n1`, the IC50 in [1] was determined as 120 µM; in series [2], 58 µM.

For the compound `CNCC1CCN(c2nc(-c3ccncc3)cnc2N2CCCC2)CC1`, the IC50 was determined as 0.15 µM in series [1] and 0.049 µM in series [2].

For the compound `NC1CCN(c2nc(-c3ccncc3)cnc2N2CCCC2)CC1`, the IC50 in [1] turned out to be 0.29 µM; in [2], 0.062 µM.

For the compound `CN1CCCN(c2nc(-c3ccncc3)cnc2N)CC1`, the 50% inhibitory concentration (IC50) in series [1] is 4.6 µM; in [2] it was 2.5 µM.

As to `CN1CCCN(c2nc(-c3ccncc3)cnc2N2CCCCC2)CC1`, the IC50 came to 18 µM in [1] and 0.56 µM in [2].

As to `c1cc(-c2cnc(N3CCCC3)c(N3CCNCC3)n2)c2cc[nH]c2n1`, the IC50 in [1] came to 0.034 µM; in series [2] it was 0.017 µM.

With `CN(C)c1ncc(-c2ccncc2)nc1N1CCN(CCO)CC1`, the IC50 in series [1] was found to be 1.4 µM; in series [2], 0.3 µM.
